Converted amounts (≈) assume the structure as drawn.
Legend:
HSV-1 = experiment: HSV Antiviral (ELISA) Assay in Vero cells; type: cell-based, herpes simplex virus type 1; conditions: HSV-1, Vero cells; for IC50: Human alphaherpesvirus 1, read-out: IC50 (ug/ml) HSV
In short: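 Viral replication was quantified by cell-fixed ELISA for HSV glycoprotein D, using a β-galactosidase reporter and fluorogenic umbelliferyl substrate, about 24 h after HSV-1 infection (MOI 0.006) of Vero cells. Compounds, at several concentrations, were added 30 min pre-infection. IC50 was derived from fluorescence relative to the compound-free signal.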

VZV strain Ellen = experiment: VZV Antiviral (ELISA) Assay in human foreskin fibroblast cells; type: cell-based, varicella-zoster virus; conditions: for IC50 / inhibition at 10 µg/mL: Human alphaherpesvirus 3, Fibroblast; for IC50: read-out: IC50 (ug/ml) VZV; for inhibition at 10 µg/mL: read-out: % inhibition 10 ug/ml VZV, 10 ug/ml
In short: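 Antiviral IC50 is derived by comparing fluorescence with and without compound after a three-day culture of VZV-infected plus uninfected foreskin fibroblasts. Replication is quantified by ELISA against glycoprotein II, using a β-galactosidase secondary and methyl umbelliferyl-β-D-galactoside.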

[1] = tested on: HCMV recombinant mutant virus (RV145); experiment: microbe, parasite or virus in culture; type: cell-based, human cytomegalovirus; conditions: for IC50: Human betaherpesvirus 5, read-out: IC50 ug/ml HCMV, HCMV
In short: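 Read-out is beta-glucuronidase activity in cell lysates 96 h after infection, measured colorimetrically or fluorometrically. Reporter virus RV145 expresses the enzyme under a viral promoter in human foreskin fibroblasts treated with inhibitor.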

SMILES | IC50 (HSV-1) | IC50 (VZV strain Ellen) | IC50 [1] | IC50 (ug/ml) HSV (HSV-1) | IC50 (ug/ml) VZV (VZV strain Ellen) | IC50 ug/ml HCMV [1] | inhibition at 10 µg/mL (VZV strain Ellen)
CC(NC(=S)Nc1ccc(NC(=O)c2ccccc2F)cc1)c1ccccc1C(F)(F)F (stereo not drawn) [Example 785] | > 10 µg/mL | > 7.5 µg/mL | > 2.2 µg/mL |  |  |  | 
COc1ccccc1C(C)NC(=S)Nc1ccc(NC(=O)c2ccccc2F)cc1 (stereo not drawn) [Example 788] |  |  |  | >10 µg/mL | >7.5 µg/mL | 1.8 µg/mL (≈ 4.25 µM) | 
COc1cccc(C(C)NC(=S)Nc2ccc(NC(=O)c3ccccc3F)cc2)c1 (stereo not drawn) [Example 789] |  |  |  | >10 µg/mL | 1.5 µg/mL (≈ 3.54 µM) | >2.2 µg/mL | 
CC(C)C(NC(=S)Nc1ccc(NC(=O)c2ccccc2F)cc1)c1ccc(F)cc1 (stereo not drawn) [Example 790] |  |  |  | >10 µg/mL | 2.5 µg/mL (≈ 5.69 µM) | 1.5 µg/mL (≈ 3.41 µM) | 
CC(NC(=S)Nc1ccc(NC(=O)c2ccccc2F)cc1)c1ccc(C#N)cc1 (stereo not drawn) [Example 792] | > 10 µg/mL | > 7.5 µg/mL | 5 µg/mL (≈ 11.9 µM) |  |  |  | 
CC(NC(=S)Nc1ccc(NC(=O)c2ccccc2F)cc1)c1ccc(N(C)C)cc1 (stereo not drawn) [Example 793] |  |  |  | 9 µg/mL (≈ 20.6 µM) | 3.1 µg/mL (≈ 7.1 µM) | 3.2 µg/mL (≈ 7.33 µM) | 
CC(NC(=S)Nc1ccc(NC(=O)c2ccccc2F)cc1)c1cccc(N(C)C)c1 (stereo not drawn) [Example 794] |  |  |  | 7 µg/mL (≈ 16 µM) | 0.4 µg/mL (≈ 0.916 µM) | 6.2 µg/mL (≈ 14.2 µM) | 
CC(NC(=S)Nc1ccc(NC(=O)c2ccccc2Br)cc1)c1ccc(F)cc1 (stereo not drawn) [Example 795] |  |  |  | 8.6 µg/mL (≈ 18.2 µM) | >7.5 µg/mL | 4.1 µg/mL (≈ 8.68 µM) | 
O=C(Nc1ccc(NC(=S)NC(CO)c2ccccc2)cc1)c1ccccc1F (stereo not drawn) [Example 797] | > 10 µg/mL | 1.7 µg/mL (≈ 4.15 µM) | > 10 µg/mL |  |  |  | 
CC(NC(=S)Nc1ccc(NC(=O)c2ccccc2F)cc1)c1ccc2ccccc2c1 (stereo not drawn) [Example 799] |  |  |  | >10 µg/mL | >7.5 µg/mL | 1.7 µg/mL (≈ 3.83 µM) | 
CC(NC(=S)Nc1ccc(NC(=O)c2cccc(F)c2)cc1)c1ccc(F)cc1 (stereo not drawn) [Example 800] | > 10 µg/mL | > 7.5 µg/mL | > 10 µg/mL |  |  |  | 
CC(NC(=S)Nc1ccc(NC(=O)c2ccc(F)cc2)cc1)c1ccc(F)cc1 (stereo not drawn) [Example 801] | > 10 µg/mL | > 7.5 µg/mL | > 10 µg/mL |  |  |  | 
CCOc1ccc(NC(=S)Nc2ccc(NC(=O)c3ccccc3F)cc2)cc1Cl [Example 806] |  |  |  | >10 µg/mL | >7.5 µg/mL | >10 µg/mL | 
CC(C)Oc1ccc(NC(=S)Nc2ccc(NC(=O)c3ccccc3F)cc2)cc1Cl [Example 808] |  |  |  | >10 µg/mL | >7.5 µg/mL | >10 µg/mL | 
CCCCOc1ccc(NC(=S)Nc2ccc(NC(=O)c3ccccc3F)cc2)cc1Cl [Example 809] |  |  |  | >10 µg/mL | >7.5 µg/mL | >10 µg/mL | 
COc1ccc(NC(=S)Nc2ccc(NC(=O)c3ccccc3F)cc2)cc1Br [Example 811] |  |  |  | 0.8 µg/mL (≈ 1.69 µM) | >7.5 µg/mL | 3.1 µg/mL (≈ 6.54 µM) | 
COc1cc(C)c(Cl)cc1NC(=S)Nc1ccc(NC(=O)c2ccccc2F)cc1 [Example 849, N-{4-[3-(5-Chloro-2-methoxy-4-methyl-phenyl)-thioureido]-phenyl}-2-fluoro-benzamide] | > 10 µg/mL | > 10 µg/mL | > 10 µg/mL |  |  |  | 38%
CN1CCC(N(C)c2ccc(NC(=S)Nc3ccc(NC(=O)c4ccccc4F)cc3)cc2Cl)CC1 [Example 855, N-[4-(3-{3-Chloro-4-[methyl-(1-methyl-piperidin-4-yl)-amino]-phenyl}-thioureido)-phenyl]-2-fluoro-benzamide] | 2.5 µg/mL (≈ 4.75 µM) | > 10 µg/mL | 0.7 µg/mL (≈ 1.33 µM) |  |  |  | 52%
O=C(Nc1ccc(NC(=S)Nc2ccccc2)cc1)c1ccccc1F [Example 859, 2-Fluoro-N-[4-(3-phenyl-thioureido)-phenyl]-benzamide] | > 10 µg/mL | > 10 µg/mL | > 10 µg/mL |  |  |  | 20%
